Reference: PMC5598073, “A novel and efficient fungal delignification strategy based on versatile peroxidase for lignocellulose bioconversion” (Biotechnology for Biofuels, 2017)
Where two headings read alike, the source gives them in different places. Values belong to the compound of their own block, whether it stands above or below them.

How the values were obtained:
[1] = tested on: T1, VP; assay: spectrophotometric oxidation, […] nm; format: biochemical, Physisporinus vitreus; conditions: 50 mM malonate pH 4.5, 0.1 mM H2O2, with or without 1 mM MnSO4 (not told per substrate)
T1 construct: native secreted enzyme purified from solid corn stover cultures; single band

[2] = tested on: T1, VP; assay: spectrophotometric oxidation, […] nm; format: biochemical, Physisporinus vitreus; conditions: 50 mM malonate pH 4.5, 0.1 mM H2O2, with or without 1 mM MnSO4 (not told per substrate); remark: listed apart in the source
[3] = tested on: T1, VP; assay: spectrophotometric oxidation, […] nm; format: biochemical, Physisporinus vitreus; conditions: 50 mM malonate pH 4.5, 0.1 mM H2O2, with or without 1 mM MnSO4 (not told per substrate); read-out: K m (mol L^-1) / VP
[4] = tested on: T2, Lac; assay: spectrophotometric oxidation, […] nm; format: biochemical, Physisporinus vitreus; conditions: 50 mM malonate pH 4.5; read-out: K m (mol L^-1) / Lac
T2 construct: native secreted enzyme purified from solid corn stover cultures; single band

[5] = tested on: VP; conditions: read-out: K m (mol L^-1) / VP; 50 mM malonate pH 4.5, 0.1 mM H2O2, with or without 1 mM MnSO4 (not told per substrate)
[6] = tested on: Lac; conditions: read-out: K m (mol L^-1) / Lac; 50 mM malonate pH 4.5
[7] = tested on: T2, Lac; assay: spectrophotometric oxidation, […] nm; format: biochemical, Physisporinus vitreus; conditions: 50 mM malonate pH 4.5; read-out: K m (mol L^-1) / Lac; remark: listed apart in the source
[8] = tested on: T1, VP; assay: spectrophotometric oxidation, […] nm; format: biochemical, Physisporinus vitreus; conditions: 50 mM malonate pH 4.5, 0.1 mM H2O2, with or without 1 mM MnSO4 (not told per substrate); read-out: K m (mol L^-1) / VP; remark: listed apart in the source

Km [5]: 35 µM
Km [6]: 13 µM
SMILES: CCn1c(=NN=c2sc3cc(S(=O)(=O)O)ccc3n2CC)sc2cc(S(=O)(=O)O)ccc21 [ABTS]

Km [7]: 900 µM
Km [8]: 130 µM
SMILES: COc1ccccc1O [Guaiacol]

More lines, now with the values behind:

SMILES: Nc1c(N=Nc2ccc(S(=O)(=O)CCOS(=O)(=O)O)cc2)c(S(=O)(=O)O)cc2cc(S(=O)(=O)O)c(N=Nc3ccc(S(=O)(=O)CCOS(=O)(=O)O)cc3)c(O)c12 [RB5]
Km [1]: 14.2 µM

SMILES: COc1ccc(CO)cc1OC [VA]
Km [2]: 213 µM

SMILES: Cc1cccc(C)c1O [2,6-DMP]
Km [3]: 44 µM
Km [4]: 280 µM
